Data reported in patent EP4768499A1, “MACROCYCLIC PEPTIDE COMPOUND HAVING CELL MEMBRANE PERMEABILITY AND METABOLIC STABILITY, AND LIBRARY CONTAINING SAME” (Chugai Seiyaku Kabushiki Kaisha, priority 2023, dated 2025).
Read-outs that look alike come from different tables or passages of the source. Starred links: 1 amine or outer side, 2 acyl side, 3 side chain; linkers in the order of their positions; H or OH if unused. Positions of bridges follow the written chain, without caps; N, C: chain ends. Non-standard residues stand in square brackets, D forms with d. Residues, ends and D or L forms follow the SMILES beside them. *: point of attachment. NMedβ3hAla = C[C@H](CC(=O)[*:2])N(C)[*:1]; NMeF = CN[C@@H](Cc1ccccc1)C(=O)O; NMeI = CC[C@H](C)[C@H](NC)C(=O)O; NMeT = CN[C@H](C(=O)O)[C@@H](C)O; hPhe = N[C@@H](CCc1ccccc1)C(=O)O; NMeβAla = CN(CCC(=O)[*:2])[*:1]; NMeD = CN[C@@H](CC(=O)O)C(=O)O; NMeL = CN[C@@H](CC(C)C)C(=O)O; NMeV = CN[C@H](C(=O)O)C(C)C; NMeAbu = CC[C@H](NC)C(=O)O; NMeA = CN[C@@H](C)C(=O)O; Piperidide = C1CCN(*)CC1; Abu = CC[C@H](N)C(=O)O; NBuGly = CCCCNCC(=O)O; βAla = NCCC(=O)O; Sar = CNCC(=O)O; tBu = CC(C)(C)*

Tests used:
[1] = Metabolic stability test: liver microsomal stability assay; assay type: in vitro ADME, mouse; settings: for microsomal CLint at 1 µM: male, pH 7.4, presence of NADPH, read-out: Mouse Hepatic Microsome CLh,int NADPH(+)
[2] = Membrane permeability test using Caco-2 cells with preincubation; assay type: in vitro ADME; settings: Caco-2
Caco-2 cells = assay: as above; assay type: in vitro ADME
[3] = mouse liver microsomes 0.5 mg protein/mL, compound 1 µM
[4] = mouse liver microsomes 0.5 mg protein/mL, compound 1 µM, absence of NADPH
[5] = preincubation 20 to 24 hours, Apical FaSSIF/HBSS pH 6.0, Basal HBSS 4% BSA pH 7.4, 180 minutes, read-out: Caco2 Papp
[6] = Caco-2 cells, preincubation 20 to 24 hours, apical FaSSIF/HBSS 1% DMSO pH 6.0, basal HBSS 4% BSA pH 7.4, basal sample at 180 minutes

Row | Compound | microsomal CLint at 1 µM [1, 3] [µL/min/mg] | Mouse Hepatic Microsome CLh,int NADPH(-) [1, 4] [µL/min/mg Protein] | Papp A→B [2, 5] [×10⁻⁶ cm/s] | Caco2 Papp (10^-6 cm/sec) (Caco-2 cells; [6]) | Mouse Hepatic Microsome CLh,int NADPH(-) [1] [µL/min/mg Protein] | Papp A→B [2] [×10⁻⁶ cm/s] | Caco2 Papp (10^-6 cm/sec) (Caco-2 cells; Caco-2)
1 | CC[C@@H]1NC(=O)[C@H](C(C)C)N(C)C(=O)[C@H](C)N(C)C(=O)[C@H](C(C)C)N(C)C(=O)[C@H](CC)N(C)C(=O)[C@H](Cc2ccccc2)N(C)C(=O)[C@H]([C@@H](C)O)N(C)C(=O)CNC(=O)[C@H](CC(C)C)N(C)C(=O)[C@H](C(C)C)NC(=O)[C@H](COC(C)(C)C)NC(=O)[C@H](CC(C)C)N(C)C(=O)[C@@H](C(C)C)NC(=O)C[C@@H](C)N(C)C1=O [pd068] (cyclo([Abu][NMedβ3hAla][dV][NMeL]S(tBu)V[NMeL]G[NMeT][NMeF][NMeAbu][NMeV][NMeA][NMeV])) | 15.7 | 12.5 | 0.27 | 0.27 10^-6 cm/sec | – | – | –
2 | CC[C@@H]1NC(=O)[C@H]([C@@H](C)O)NC(=O)[C@H](Cc2ccccc2)N(C)C(=O)[C@H](CC(C)C)N(C)C(=O)[C@H](C(C)C)NC(=O)[C@H]([C@@H](C)CC)N(C)C(=O)[C@H]([C@@H](C)CC)NC(=O)[C@H](CC(C)C)N(C)C(=O)[C@H](C)N(C)C(=O)[C@H](C)NC(=O)C[C@@H](C)N(C)C(=O)[C@H](CC(C)C)N(C)C(=O)[C@H](C)N(C)C(=O)CN(C)C1=O [pd069] (cyclo(A[NMeA][NMeL]I[NMeI]V[NMeL][NMeF]T[Abu][Sar][NMeA][NMeL][NMedβ3hAla])) | 16.5 | 20.5 | < 0.08 | <0.08 10^-6 cm/sec | – | – | –
3 | CC[C@@H]1NC(=O)[C@H](Cc2ccccc2)N(C)C(=O)[C@@H]2CCCN2C(=O)[C@H](CC(C)C)N(C)C(=O)[C@H](CC)NC(=O)[C@H](C(C)C)NC(=O)[C@H](CC(C)C)N(C)C(=O)[C@H]([C@@H](C)O)NC(=O)[C@H](Cc2ccccc2)N(C)C(=O)CN(C)C(=O)C[C@@H](C)N(C)C(=O)[C@H](C(C)C)NC(=O)[C@H](CC)N(C)C(=O)[C@H](C)N(C)C1=O [pd070] (cyclo([Abu][NMeA][NMeAbu]V[NMedβ3hAla][Sar][NMeF]T[NMeL]V[Abu][NMeL]P[NMeF])) | 15 | 14.6 | 0.03 | 0.03 10^-6 cm/sec | – | – | –
4 | CC[C@H]1C(=O)N(C)[C@H](C)CC(=O)N[C@H](C(C)C)C(=O)N(C)[C@@H](CC(C)C)C(=O)N(C)[C@@H](C(C)C)C(=O)N[C@@H](C)C(=O)N(C)[C@@H](CC(C)C)C(=O)NCC(=O)N(C)[C@@H]([C@@H](C)O)C(=O)N(C)[C@@H](Cc2ccccc2)C(=O)N(C)[C@@H](CC)C(=O)N[C@@H](COC(C)(C)C)C(=O)N(C)[C@@H](C)C(=O)N(C)[C@@H](C(C)C)C(=O)N1C [pd071] (cyclo(A[NMeL]G[NMeT][NMeF][NMeAbu]S(tBu)[NMeA][NMeV][NMeAbu][NMedβ3hAla][dV][NMeL][NMeV])) | 13.3 | 6.2 | 0.22 | 0.22 10^-6 cm/sec | – | – | –
5 | CC[C@@H]1NC(=O)[C@H]([C@@H](C)O)NC(=O)[C@H](Cc2ccccc2)N(C)C(=O)[C@H](CC(C)C)N(C)C(=O)[C@H](C(C)C)N(C)C(=O)[C@H](CC)N(C)C(=O)[C@H]([C@@H](C)CC)NC(=O)[C@H](CC(C)C)N(C)C(=O)[C@H](C)N(C)C(=O)[C@H](C)NC(=O)C[C@@H](C)N(C)C(=O)[C@H](CC(C)C)N(C)C(=O)[C@H](C)N(C)C(=O)CN(C)C1=O [pd072] (cyclo(A[NMeA][NMeL]I[NMeAbu][NMeV][NMeL][NMeF]T[Abu][Sar][NMeA][NMeL][NMedβ3hAla])) | 22.4 | 16.6 | < 0.13 | <0.13 10^-6 cm/sec | – | – | –
6 | CC[C@H]1C(=O)N(C)[C@@H](CC(C)C)C(=O)N2CCC[C@H]2C(=O)N(C)[C@@H](CC)C(=O)N[C@@H](CCc2ccccc2)C(=O)N(C)[C@@H](C)C(=O)N(C)[C@@H](CC)C(=O)N[C@@H](C(C)C)C(=O)N(C)[C@H](C)CC(=O)N(C)CC(=O)N(C)[C@@H](Cc2ccccc2)C(=O)N[C@@H]([C@@H](C)O)C(=O)N(C)[C@@H](CC(C)C)C(=O)N[C@@H](C(C)C)C(=O)N1C [pd073] (cyclo([NMeA][NMeAbu]V[NMedβ3hAla][Sar][NMeF]T[NMeL]V[NMeAbu][NMeL]P[NMeAbu][hPhe])) | 24.3 | 2.9 | < 0.12 | <0.12 10^-6 cm/sec | – | – | –
7 | CC[C@@H]1NC(=O)[C@H](CC(C)C)N(C)C(=O)[C@H](CC(C)C)NC(=O)[C@H](C)N(C)C(=O)C[C@@H](C(=O)N2CCCCC2)N(C)C(=O)[C@H](C)N(C)C(=O)[C@H](CC(C)C)NC(=O)[C@H](CC(C)C)N(C)C(=O)CNC(=O)[C@H]([C@@H](C)CC)N(C)C(=O)[C@H](Cc2ccccc2)N(C)C(=O)[C@H](C)NC(=O)[C@H]([C@@H](C)CC)NC(=O)[C@H](Cc2ccccc2)N(C)C1=O [pd075] ([NMeA]L[NMeL][Abu][NMeF]IA[NMeF][NMeI]G[NMeL]L[NMeA][NMeD]-Piperidide; lactam N-14) | 35.6 | 42.8 | 0.17 | 0.17 10^-6 cm/sec | – | – | –
8 | CCCCN1CC(=O)N(C)[C@@H](Cc2ccccc2)C(=O)N[C@@H](COC(C)(C)C)C(=O)N(C)[C@@H](CC(C)C)C(=O)NCCC(=O)N(C)[C@@H](C)C(=O)N[C@@H]([C@@H](C)CC)C(=O)N(C)[C@@H](CC(C)C)C(=O)N[C@@H](C(C)C)C(=O)N(C)[C@H](C(=O)N2CCCCC2)CC(=O)N(C)CCC(=O)N(C)[C@@H](CC(C)C)C(=O)N[C@@H]([C@@H](C)CC)C(=O)N(C)[C@@H](Cc2ccccc2)C1=O [pd077] ([NMeβAla][NMeL]I[NMeF][NBuGly][NMeF]S(tBu)[NMeL][βAla][NMeA]I[NMeL]V[NMeD]-Piperidide; lactam N-14) | 40 | 40.3 | 0.32 | 0.32 10^-6 cm/sec | – | – | –
9 | CC[C@@H]1NC(=O)[C@H](CC(C)C)N(C)C(=O)C[C@@H](C(=O)N2CCCCC2)N(C)C(=O)[C@H](C(C)C)NC(=O)[C@H](CC(C)C)N(C)C(=O)[C@H](C)NC(=O)[C@H](CC)N(C)C(=O)[C@H](C(C)C)NC(=O)[C@H](CC(C)C)N(C)C(=O)[C@H](C)N(C)C(=O)[C@H](Cc2ccccc2)N(C)C(=O)[C@H](C(C)C)NC(=O)[C@@H]2CCCN2C(=O)[C@H](C(C)C)N(C)C1=O [pd078] ([NMeL][Abu][NMeV]PV[NMeF][NMeA][NMeL]V[NMeAbu]A[NMeL]V[NMeD]-Piperidide; lactam N-14) | 28.3 | 22.9 | 2.75 | 2.75 10^-6 cm/sec | – | – | –
10 | CC[C@H](C)[C@@H]1NC(=O)[C@H](CC(C)C)N(C)C(=O)[C@H](CC(C)C)NC(=O)[C@H](C)N(C)C(=O)C[C@@H](C(=O)N2CCCCC2)N(C)C(=O)[C@H](C)N(C)C(=O)[C@H](CC(C)C)NC(=O)[C@H](C(C)C)N(C)C(=O)[C@H](CC(C)C)N(C)C(=O)CNC(=O)[C@H]([C@@H](C)CC)N(C)C(=O)[C@H](Cc2ccccc2)N(C)C(=O)[C@H](C)NC(=O)[C@H](Cc2ccccc2)N(C)C1=O [pd079] ([NMeA]L[NMeL]I[NMeF]A[NMeF][NMeI]G[NMeL][NMeV]L[NMeA][NMeD]-Piperidide; lactam N-14) | 26.1 | 38.4 | 0.12 | 0.12 10^-6 cm/sec | – | – | –
11 | CC[C@@H]1NC(=O)[C@H](C(C)C)N(C)C(=O)[C@H](C)N(C)C(=O)[C@H](Cc2ccccc2)N(C)C(=O)[C@H](CC(C)C)NC(=O)[C@H](Cc2ccccc2)N(C)C(=O)[C@H](C(C)C)NC(=O)[C@H](CC(C)C)N(C)C(=O)[C@H]([C@@H](C)CC)NC(=O)[C@H](CC(C)C)N(C)C(=O)CN(C)C(=O)C[C@@H](C(=O)N2CCCCC2)N(C)C(=O)CNC(=O)[C@H](C)N(C)C1=O [pd080] ([Sar][NMeL]I[NMeL]V[NMeF]L[NMeF][NMeA][NMeV][Abu][NMeA]G[NMeD]-Piperidide; lactam N-14) | 29.3 | 27.8 | 0.25 | 0.25 10^-6 cm/sec | – | – | –
12 | CC[C@H](C)[C@@H]1NC(=O)[C@H]([C@@H](C)CC)N(C)C(=O)[C@@H](C)NC(=O)C[C@@H](C(=O)N2CCCCC2)N(C)C(=O)[C@H](Cc2ccccc2)N(C)C(=O)[C@H](C(C)C)NC(=O)CCN(C)C(=O)[C@H](CC)N(C)C(=O)[C@H](CC(C)C)N(C)C(=O)[C@H](C)NC(=O)CN(C)C(=O)[C@H](CC(C)C)N(C)C(=O)CCN(C)C(=O)[C@H](Cc2ccccc2)N(C)C1=O [pd081] ([dA][NMeI]I[NMeF][NMeβAla][NMeL][Sar]A[NMeL][NMeAbu][NMeβAla]V[NMeF][NMeD]-Piperidide; lactam N-14) | – | – | – | – | 5.7 | 0.02 | 0.02 10^-6 cm/sec
13 | CCCCN1CC(=O)N(C)[C@@H](Cc2ccccc2)C(=O)N[C@@H](COC(C)(C)C)C(=O)N(C)[C@@H](CC(C)C)C(=O)N(C)[C@@H](CC)C(=O)N(C)[C@@H](C)C(=O)N[C@@H]([C@@H](C)CC)C(=O)N(C)[C@@H](C(C)C)C(=O)N[C@@H](C(C)C)C(=O)N(C)[C@H](C(=O)N2CCCCC2)CC(=O)N(C)CCC(=O)N(C)[C@@H](CC(C)C)C(=O)N[C@@H]([C@@H](C)CC)C(=O)N(C)[C@@H](Cc2ccccc2)C1=O [pd082] ([NMeβAla][NMeL]I[NMeF][NBuGly][NMeF]S(tBu)[NMeL][NMeAbu][NMeA]I[NMeV]V[NMeD]-Piperidide; lactam N-14) | 32.6 | 38.5 | 0.03 | 0.03 10^-6 cm/sec | – | – | –
